Measurements taken from BindingDB's records for patent US12378249 (Genentech, 2025).

Experiments:
[1] = biological target: Mitogen-activated protein kinase kinase kinase kinase 1 (Homo sapiens, UniProt Q92918); experiment: HPK1 Lantha Binding Assay (“Lanth”)
Protocol: (§1) Assay Condition:The following assay concentrations and times were used: 2 nM HPK1, 2 nM Eu-Anti-GST Ab, and 15 nM Tracer222, with 60 min incubation time.HPK Lantha Binding Assay:For the binding assay, 4 ul 2X HPK1 and Eu-anti-GST antibody were added to each well of the assay plate using a Multidrop reagent dispenser. The solutions were incubated in a 23 C incubator for 1 h. To each well of the assay plate was added 4 ul 2× Tracer-222 using a Multidrop reagent dispenser. The solutions were again incubated in a 23 C incubator for 1 h. The results of the assay were read using an Envision plate reader with the following parameters:TR_FRET, 340ex/615 and 665em; 100 usec Delay; and 200 usec integration.

[2] = biological target: T1, Mitogen-activated protein kinase kinase kinase kinase 1 [T165E,S171E] (Homo sapiens, UniProt Q92918, S171E/T165E); experiment: HPK1 Lantha Binding Assay (“Lanth”)
T1 construct: gene MAP4K1
T1 sequence (Q92918 whole entry T165E/S171E, looked up): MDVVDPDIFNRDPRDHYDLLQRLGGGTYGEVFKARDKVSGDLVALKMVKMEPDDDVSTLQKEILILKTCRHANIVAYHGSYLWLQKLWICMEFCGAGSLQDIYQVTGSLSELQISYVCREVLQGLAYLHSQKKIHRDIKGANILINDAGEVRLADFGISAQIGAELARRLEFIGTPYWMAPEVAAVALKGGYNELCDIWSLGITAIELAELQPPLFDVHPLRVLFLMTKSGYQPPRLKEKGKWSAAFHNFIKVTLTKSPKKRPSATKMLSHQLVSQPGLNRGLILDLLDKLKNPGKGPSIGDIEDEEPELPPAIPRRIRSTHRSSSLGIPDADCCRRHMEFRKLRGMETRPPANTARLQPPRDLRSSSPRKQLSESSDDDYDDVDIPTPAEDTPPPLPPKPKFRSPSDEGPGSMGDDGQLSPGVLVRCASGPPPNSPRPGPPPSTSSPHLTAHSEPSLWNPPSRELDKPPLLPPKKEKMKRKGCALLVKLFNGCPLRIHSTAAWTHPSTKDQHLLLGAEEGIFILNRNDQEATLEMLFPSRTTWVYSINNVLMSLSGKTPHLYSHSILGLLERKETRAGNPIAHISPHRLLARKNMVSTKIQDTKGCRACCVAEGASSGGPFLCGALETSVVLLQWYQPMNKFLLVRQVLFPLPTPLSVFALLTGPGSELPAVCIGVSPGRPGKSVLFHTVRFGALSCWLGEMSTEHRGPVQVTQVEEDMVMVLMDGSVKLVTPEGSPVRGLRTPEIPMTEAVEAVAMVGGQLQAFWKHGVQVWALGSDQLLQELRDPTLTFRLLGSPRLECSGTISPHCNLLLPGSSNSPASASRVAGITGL
Protocol: as §1

Sequence of Mitogen-activated protein kinase kinase kinase kinase 1 (Q92918 whole entry): as the sequence (Q92918 whole entry T165E/S171E, looked up) above, with E165T, E171S counted along it

| Ki [1] [nM] | Ki [2] [nM] | SMILES |
| --- | --- | --- |
| 6 | – | CCc1ccnc(Nc2cc3cc(-c4cnccc4C)ccc3cn2)c1 [US12378249, Compound 105] |
| – | 0.013 | Cc1c(N)cncc1-c1cc2cc(Nc3cc4n(n3)CC(=O)N(CCN3CC(O)C3)CC4)ncc2cc1F [US12378249, Compound 165] |
